From patent publication US20220202801A1, “USE OF COMPOUND IN PREPARATION OF DRUG FOR TREATING ATHEROSCLEROSIS” (GenEros Biopharma Ltd., priority 2019, published 2022)
Entries after “also recorded” stand apart in the source; their conditions may differ.

Key:
[1] = tested on: atherosclerosis model induced by high-fat diet in ApoE knockout mice; assay: Ratio of atherosclerotic plaque area to total inner wall area of the aorta (En-Face, oil red; Example 2); format: in vivo
Excerpt: Methods: A total of 130 SPF grade C57BL/6 ApoE −/− model male mice aged 8 weeks were purchased from Charles River Laboratories (Beijing, China) (animal license number: SCXK (Beijing) 2016-0001, animal qualification certificate No.: 11400700331337). After one week of acclimatization in a SPF-grade animal facility, the animals with less weights were discarded and the rest was randomly divided into 11 groups, with 8 animals in each group. Except for the healthy control group, the rest were fed with 10% high-fat food (the first day of the high-fat diet was recorded as D1). Starting from the 8th week of the high-fat diet, each group of animals was orally given solvents or corresponding drugs, and the volume of administration was 10 ml/kg, once a day for 8 weeks. Animals were observed and administered by gavage once a day and the body weight were measured once a week for 56 days. […] The store solution of the test samples was dissolved in dimethyl sulfoxide solution and prepared with 30% PEG300.
Immediately after blood was taken from the heart, it was perfused through the left ventricle with 20 ml of normal saline. After bloodletting, the heart and aorta (from the aortic arch to the iliac artery) were isolated. The isolated artery was cut longitudinally from the aortic arch to the iliac artery, fixed in 4% paraformaldehyde for 30 minutes, synchronized with 60% isopropanol for 10 minutes, stained in 60% oil red for 30 minutes, and washed by 60% isopropanol 3 times, 5 minutes each time. Finally, the colored aorta was washed with deionized water and photographed. The proportion of the red plaque area was measured by Image Pro Plus 6.0 (Media Cybernetics, MD, US). The heart samples were fixed in 4% paraformaldehyde solution overnight and then placed in sucrose solution for dehydration. Then, it was embedded with OCT (Sakura, Japan) under a stereo microscope and made into 7 μm frozen sections. After HE staining, the slices were used for routine pathological examination. The outflow tract images were collected under an optical microscope at 4* magnification, and 4*, 10*, 20* and 40* magnification eyepieces were used for high-quality morphological observation. The detection standard referred to the histological classification standard of human atherosclerosis disease.
Evaluate the effect of different therapeutic drugs by the ratio of the area of atherosclerotic plaque to the total area of the inner wall of the aortic vessel (En-Face)
We adopted the widely accepted standard for the severity of arteriosclerosis in animal models, and analyzed the area of all plaques on the inner wall of the aorta. […] FIGS. 46A and 46B are histograms of the ratios of plaque area on the inner wall of the aorta in each treatment group. The values in FIGS. 46A and 46B are the ratios of plaques to the total area of the inner wall in each group, and the error is standard error±SEM. The statistical significance analysis is as follows: ***P<0.001 compared with the normal control group; #P<0.05 compared with the vehicle group; ##P<0.01, ###P<0.001, compared with the vehicle group through one-way ANOVA Dunnett's test; & represents P<0.05, compared with the vehicle group by t test.

ApoE knockout mice = assay: Four blood lipids in serum of ApoE knockout mice (Example 1); format: in vivo; conditions: for regulation on blood lipid levels (overall): Example 1, overall; for HDL-C / LDL-C / TC / TG: serum
Excerpt: Methods: SPF grade C57BL/6 ApoE −/−model mice were provided by Guangdong Medical Experimental Animal Center, laboratory animal production license No. SOCK (Guangdong) 2013-0002. Laboratory animal quality certificate number: 44007200048196). Mice were half male and half female, aged 8 to 12 weeks, and 72 animals in total. After four weeks of housing in a SPF-level animal facility, animals with less body weights were disposed. A total of 64 animals were randomly divided into 8 groups, 8 in each group, fed with 10% high-fat food, and received with different treatments. Animals were observed and administered with the medicines by gavage once daily. The body weights were measured once a week and continued for 58 days. […] The test sample was dissolved in dimethyl sulfoxide solution and prepared with 30% PEG300.
At the end of the experiment, animals were anesthetized with pentobarbital sodium. Blood was collected from the orbital venous plexus, and centrifuged at 3000 r/min at a low temperature for 10 min to separate the serum. The levels of total cholesterol TC, triglyceride TG, high-density lipoprotein HDL-C, and low-density lipoprotein LDL-C were measured, and the remaining serum was stored in a refrigerator at −80° C.
Statistical analysis: Data were expressed as the mean plus or minus the standard deviation (x± s), and analyzed by SPSS21.0 statistical software. […] The level of test is α=0.05.

[2] = half male and female, 1 mg/kg body weight
[3] = half male and female, 2 mg/kg body weight
[4] = half male and female, 5 mg/kg body weight
[5] = half male and female, 5 mg/kg body weight, 5 mg/kg
[6] = ♀, 2 mg/kg gavage QD, 58 days, 2 mg/kg
[7] = ♂, 5 mg/kg gavage QD, 58 days, 5 mg/kg
[8] = ♂, 5 mg/kg gavage QD, 58 days, listed as sample B, 5 mg/kg
[9] = half male and female, 10 mg/kg body weight
[10] = ♀, 2 mg/kg gavage QD, 58 days, listed as Nib1, 2 mg/kg
[11] = ♀, 10 mg/kg gavage QD, 58 days, 10 mg/kg
[12] = ♀, 10 mg/kg gavage QD, 58 days, listed as Nib1, 10 mg/kg

O=C(N/N=C/c1coc2ccccc2c1=O)c1cccnc1 [Sample B]
Mean of Plaque Ratio (plaque area to total inner wall area of aorta) ([1]; 2 mpk PO QD 8 weeks, high-fat diet): 11.22% | symptoms of atherosclerosis under therapeutic intervention (mainly plaque area ratio) ([1]; different doses, Example 2): significantly alleviate the symptoms of atherosclerosis | regulation on blood lipid levels (overall) (ApoE knockout mice): have the effect of improving blood lipids | HDL-C (ApoE knockout mice; [2]): 1.75 ± 0.69 mmol/L | LDL-C (ApoE knockout mice; [2]): 6.19 ± 2.64 mmol/L | TC (ApoE knockout mice; [2]): 19.56 ± 5.66 mmol/L | TG (ApoE knockout mice; [2]): 0.91 ± 0.69 mmol/L | HDL-C (ApoE knockout mice; [3]): 1.68 ± 0.39 mmol/L | LDL-C (ApoE knockout mice; [3]): 5.71 ± 1.80 mmol/L | TC (ApoE knockout mice; [3]): 19.01 ± 4.64 mmol/L | TG (ApoE knockout mice; [3]): 0.81 ± 0.30 mmol/L | HDL-C (ApoE knockout mice; [4]): 1.71 ± 0.45 mmol/L | LDL-C (ApoE knockout mice; [4]): 5.96 ± 2.17 mmol/L | TC (ApoE knockout mice; [4]): 19.76 ± 5.49 mmol/L | TG (ApoE knockout mice; [5]): 0.74 ± 0.35 mmol/L | TG (ApoE knockout mice; half male and female, 5 mg/kg body weight, listed as sample B, 5 mg/kg): lower; also recorded: decreased | LDL-C (ApoE knockout mice; ♀, 1 mg/kg gavage QD, 58 days): 4.32 ± 0.59 mmol/L | TC (ApoE knockout mice; ♀, 1 mg/kg gavage QD, 58 days): 15.50 ± 2.01 mmol/L | TG (ApoE knockout mice; ♀, 1 mg/kg gavage QD, 58 days): 0.57 ± 0.08 mmol/L | HDL-C (ApoE knockout mice; ♀, 1 mg/kg gavage QD, 58 days, 1 mg/kg): 1.32 ± 0.18 mmol/L | HDL-C (ApoE knockout mice; ♀, 1 mg/kg gavage QD, 58 days, listed as sample B, 1 mg/kg): lower | LDL-C (ApoE knockout mice; ♀, 2 mg/kg gavage QD, 58 days): 4.40 ± 0.96 mmol/L | TC (ApoE knockout mice; ♀, 2 mg/kg gavage QD, 58 days): 15.49 ± 2.98 mmol/L | TG (ApoE knockout mice; ♀, 2 mg/kg gavage QD, 58 days): 0.58 ± 0.10 mmol/L | HDL-C (ApoE knockout mice; [6]): 1.36 ± 0.16 mmol/L | HDL-C (ApoE knockout mice; ♀, 2 mg/kg gavage QD, 58 days, listed as sample B, 2 mg/kg): lower | LDL-C (ApoE knockout mice; ♀, 5 mg/kg gavage QD, 58 days): 4.61 ± 0.56 mmol/L | TC (ApoE knockout mice; ♀, 5 mg/kg gavage QD, 58 days): 16.21 ± 1.98 mmol/L | TG (ApoE knockout mice; ♀, 5 mg/kg gavage QD, 58 days): 0.65 ± 0.24 mmol/L | HDL-C (ApoE knockout mice; ♀, 5 mg/kg gavage QD, 58 days, 5 mg/kg): 1.38 ± 0.08 mmol/L | HDL-C (ApoE knockout mice; ♀, 5 mg/kg gavage QD, 58 days, listed as sample B, 5 mg/kg): lower | HDL-C (ApoE knockout mice; ♂, 1 mg/kg gavage QD, 58 days): 2.18 ± 0.75 mmol/L | LDL-C (ApoE knockout mice; ♂, 1 mg/kg gavage QD, 58 days): 8.07 ± 2.56 mmol/L | TC (ApoE knockout mice; ♂, 1 mg/kg gavage QD, 58 days): 23.63 ± 5.16 mmol/L | TG (ApoE knockout mice; ♂, 1 mg/kg gavage QD, 58 days): 1.26 ± 0.89 mmol/L | LDL-C (ApoE knockout mice; ♂, 2 mg/kg gavage QD, 58 days): 7.03 ± 1.41 mmol/L | TC (ApoE knockout mice; ♂, 2 mg/kg gavage QD, 58 days): 22.54 ± 2.88 mmol/L | TG (ApoE knockout mice; ♂, 2 mg/kg gavage QD, 58 days): 1.05 ± 0.25 mmol/L | HDL-C (ApoE knockout mice; ♂, 2 mg/kg gavage QD, 58 days, 2 mg/kg): 2.00 ± 0.23 mmol/L | HDL-C (ApoE knockout mice; ♂, 2 mg/kg gavage QD, 58 days, listed as sample B, 2 mg/kg): lower | LDL-C (ApoE knockout mice; ♂, 5 mg/kg gavage QD, 58 days): 7.31 ± 2.41 mmol/L | TC (ApoE knockout mice; ♂, 5 mg/kg gavage QD, 58 days): 23.32 ± 5.72 mmol/L | HDL-C (ApoE knockout mice; [7]): 2.04 ± 0.42 mmol/L | TG (ApoE knockout mice; [7]): 0.83 ± 0.46 mmol/L | HDL-C (ApoE knockout mice; [8]): lower | TG (ApoE knockout mice; [8]): lower

O=c1[nH]c2ccccc2n1C1CCN(CCCC(c2ccc(F)cc2)c2ccc(F)cc2)CC1 [Sample A]
regulation on blood lipid levels (overall) (ApoE knockout mice): have the effect of improving blood lipids | HDL-C (ApoE knockout mice; [3]): 1.80 ± 0.62 mmol/L | LDL-C (ApoE knockout mice; [3]): 6.23 ± 2.86 mmol/L | TC (ApoE knockout mice; [3]): 19.86 ± 6.92 mmol/L | TG (ApoE knockout mice; [3]): 1.18 ± 0.70 mmol/L | LDL-C (ApoE knockout mice; [4]): 6.09 ± 2.12 mmol/L | TC (ApoE knockout mice; [4]): 20.87 ± 6.13 mmol/L | TG (ApoE knockout mice; [4]): 0.82 ± 0.17 mmol/L | HDL-C (ApoE knockout mice; [5]): 1.63 ± 0.28 mmol/L | HDL-C (ApoE knockout mice; half male and female, 5 mg/kg body weight, listed as sample A, 5 mg/kg): lower | LDL-C (ApoE knockout mice; [9]): 5.82 ± 2.13 mmol/L | TC (ApoE knockout mice; [9]): 19.85 ± 6.26 mmol/L | TG (ApoE knockout mice; [9]): 0.89 ± 0.20 mmol/L | HDL-C (ApoE knockout mice; half male and female, 10 mg/kg body weight, 10 mg/kg): 1.62 ± 0.35 mmol/L | HDL-C (ApoE knockout mice; half male and female, 10 mg/kg body weight, listed as sample A, 10 mg/kg): lower | TG (ApoE knockout mice; ♀, 2 mg/kg gavage QD, 58 days): 0.86 ± 0.16 mmol/L | LDL-C (ApoE knockout mice; [6]): 3.86 ± 0.95 mmol/L | TC (ApoE knockout mice; [6]): 13.88 ± 1.77 mmol/L | LDL-C (ApoE knockout mice; [10]): decreased | TC (ApoE knockout mice; [10]): decreased | LDL-C (ApoE knockout mice; ♀, 5 mg/kg gavage QD, 58 days): 4.30 ± 0.39 mmol/L | TC (ApoE knockout mice; ♀, 5 mg/kg gavage QD, 58 days): 15.41 ± 1.32 mmol/L | TG (ApoE knockout mice; ♀, 5 mg/kg gavage QD, 58 days): 0.70 ± 0.11 mmol/L | TG (ApoE knockout mice; ♀, 10 mg/kg gavage QD, 58 days): 0.76 ± 0.07 mmol/L | LDL-C (ApoE knockout mice; [11]): 3.86 ± 0.38 mmol/L | TC (ApoE knockout mice; [11]): 14.07 ± 0.64 mmol/L | LDL-C (ApoE knockout mice; [12]): decreased | TC (ApoE knockout mice; [12]): decreased | HDL-C (ApoE knockout mice; ♂, 2 mg/kg gavage QD, 58 days): 2.26 ± 0.54 mmol/L | LDL-C (ApoE knockout mice; ♂, 2 mg/kg gavage QD, 58 days): 8.60 ± 1.79 mmol/L | TC (ApoE knockout mice; ♂, 2 mg/kg gavage QD, 58 days): 25.84 ± 3.63 mmol/L | TG (ApoE knockout mice; ♂, 2 mg/kg gavage QD, 58 days): 1.51 ± 0.92 mmol/L | HDL-C (ApoE knockout mice; ♂, 5 mg/kg gavage QD, 58 days): 1.83 ± 0.24 mmol/L | LDL-C (ApoE knockout mice; ♂, 5 mg/kg gavage QD, 58 days): 7.87 ± 1.38 mmol/L | TC (ApoE knockout mice; ♂, 5 mg/kg gavage QD, 58 days): 26.34 ± 2.50 mmol/L | TG (ApoE knockout mice; ♂, 5 mg/kg gavage QD, 58 days): 0.94 ± 0.15 mmol/L | HDL-C (ApoE knockout mice; ♂, 10 mg/kg gavage QD, 58 days): 1.92 ± 0.18 mmol/L | LDL-C (ApoE knockout mice; ♂, 10 mg/kg gavage QD, 58 days): 7.78 ± 0.40 mmol/L | TC (ApoE knockout mice; ♂, 10 mg/kg gavage QD, 58 days): 25.64 ± 1.32 mmol/L | TG (ApoE knockout mice; ♂, 10 mg/kg gavage QD, 58 days): 1.02 ± 0.22 mmol/L
